From publication PMC5727211, “Development of Erasin: a chromone-based STAT3 inhibitor which induces apoptosis in Erlotinib-resistant lung cancer cells” (Scientific Reports, 2017)
Entries after “also recorded” stand apart in the source; their conditions may differ.

Experiments:
[1] = test system: STAT1 Tyr701 phosphorylation; assay: Western Blot, IFN-γ-stimulated STAT1 Tyr701 phosphorylation in HepG2 cells; format: cell-based, human; settings: 1 h pre-treatment, 15 min 50 ng/mL IFNγ
Source text: (§1) An inhibitor of a STAT SH2 domain prevents phosphorylation of STATs at this conserved tyrosine residue, thereby inhibiting STAT-mediated signal transduction (Fig. 3a). Consistent with its activity in the FP assay, 8 inhibited interleukin (IL)-6-stimulated STAT3 Tyr705 phosphorylation in HepG2 cells in a dose-dependent manner (Fig. 3b). […] In contrast, tyrosine phosphorylation of STAT5 in K562 cells is not inhibited (Fig. 3d). The activity profile in cells thus reflects the selectivity profile seen in vitro (Fig. 2a, Table 1), supporting the notion that cellular activities are mediated by functional inhibition of the STAT SH2 domains.
(§2) HepG2 cells were plated in 6-well plates (Corning #3516) and allowed to reach approximately 60% confluence. The medium was then replaced with serum-free medium for 24 h. […]
(§3) Lysates were separated on a polyacrylamide gel under denaturing conditions, and transferred to a nitrocellulose membrane. STAT phosphorylation was assessed using rabbit monoclonal antibodies against the phosphorylated forms only of STAT1, STAT3 or STAT5 (Cell Signaling, 1:1000) with secondary antibody swine anti-rabbit HRP from Dako, 1:3000), followed by reblotting with rabbit monoclonal antibodies against total STAT1, STAT3 or STAT5 (Cell Signaling), and subsequently β-actin loading control. […]

[2] = NMR-based stability analysis (hydrolysis of acyl hydrazone to aldehyde); format: physicochemical; settings: deuterated phosphate buffer pD = 7.9 with DMSO-d6, 24 h
Protocol: The formation of acyl hydrazones from aldehydes is a reversible reaction. […] The strongly divergent relative activities of the aldehydes 8a and 9a compared to the acyl hydrazones 8 and 9 imply that the activity of the acyl hydrazones is not a consequence of aldehyde formation.
Na2DPO4 (C/D/N Isotopes, 8.5 mM) and NaD2PO4 (C/D/N Isotopes, 3.3 mM) were dissolved in D2O to give a total phosphate concentration of 11.8 mM. The measured pH of 7.5 corresponds to a pD of 7.91 according to the literature.
This reduction tails off, consistent with the idea that inhibition of STAT3 by 8 is a slow but reversible process. An alternative explanation for time-dependent inhibition would be covalent modification of the Michael acceptor of the chromones by the protein. While we cannot formally exclude this possibility, two observations argue against cysteine alkylation as the […]
double bond of 8. B) Secondly, omission of the strong nucleophile dithiothreitol (DTT) from the assay […]
easily susceptible to covalent modification by nucleophiles. Data after 2 h of incubation are shown. C) Activity of 8 in a fluorescence polarization assay against wild-type STAT3 or a STAT3 Glu594Ala mutant after 2 h incubation in the presence of 1 mM DTT. […]

STAT3 Glu594Ala mutant = STAT3 Glu594Ala mutant (Homo sapiens, UniProt P40763, E594A); assay: FP assay against STAT3 Glu594Ala mutant; format: binding
Source text: The predicted (E)-trans-configuration of the acyl hydrazone moiety in the protein-bound state was also observed in the X-ray structure of crystals of 8 grown from ethyl acetate / hexane (Supplementary Fig. S4). Substantial conformational changes of the protein are required for ligand binding (Supplementary Fig. S3), a process which can account for the observed time-dependence of inhibition by 8 (Supplementary Fig. S5). […] Substitution of the pyridyl ring for electron-rich, five-membered heteroaromatic rings is tolerated (17–19). […] This behavior is consistent with hydrogen bonding between the molecules’ carbonyl group and the backbone amide of Gln635 as proposed by the docking studies (Fig. 2b), which is expected to suffer from electron-withdrawing substituents on the phenyl ring. Further evidence for hydrogen bonding arises from the inactivity of derivative 22, in which the carbonyl group has been deleted. Substitution of the carbonyl by a sulfonyl group (compound 23) is also not tolerated, indicating specific recognition of 8 by STAT3.
This reduction tails off, consistent with the idea that inhibition of STAT3 by 8 is a slow but reversible process. […]
easily susceptible to covalent modification by nucleophiles. […] C) Activity of 8 in a fluorescence polarization assay against wild-type STAT3 or a STAT3 Glu594Ala mutant after 2 h incubation in the presence of 1 mM DTT. […]

STAT5 phosphorylation = assay: Western Blot, STAT5 tyrosine phosphorylation in K562 cells; format: cell-based, human
Source text: as §1, §2, §3

[3] = test system: STAT3 Tyr705 phosphorylation; assay: Western Blot, IL-6-stimulated STAT3 Tyr705 phosphorylation in HepG2 cells; format: cell-based, human; settings: 1 h pre-treatment, 30 min 50 ng/mL IL-6
Source text: as §1, §2, §3

Sequence of STAT3 Glu594Ala mutant (P40763 whole entry E594A): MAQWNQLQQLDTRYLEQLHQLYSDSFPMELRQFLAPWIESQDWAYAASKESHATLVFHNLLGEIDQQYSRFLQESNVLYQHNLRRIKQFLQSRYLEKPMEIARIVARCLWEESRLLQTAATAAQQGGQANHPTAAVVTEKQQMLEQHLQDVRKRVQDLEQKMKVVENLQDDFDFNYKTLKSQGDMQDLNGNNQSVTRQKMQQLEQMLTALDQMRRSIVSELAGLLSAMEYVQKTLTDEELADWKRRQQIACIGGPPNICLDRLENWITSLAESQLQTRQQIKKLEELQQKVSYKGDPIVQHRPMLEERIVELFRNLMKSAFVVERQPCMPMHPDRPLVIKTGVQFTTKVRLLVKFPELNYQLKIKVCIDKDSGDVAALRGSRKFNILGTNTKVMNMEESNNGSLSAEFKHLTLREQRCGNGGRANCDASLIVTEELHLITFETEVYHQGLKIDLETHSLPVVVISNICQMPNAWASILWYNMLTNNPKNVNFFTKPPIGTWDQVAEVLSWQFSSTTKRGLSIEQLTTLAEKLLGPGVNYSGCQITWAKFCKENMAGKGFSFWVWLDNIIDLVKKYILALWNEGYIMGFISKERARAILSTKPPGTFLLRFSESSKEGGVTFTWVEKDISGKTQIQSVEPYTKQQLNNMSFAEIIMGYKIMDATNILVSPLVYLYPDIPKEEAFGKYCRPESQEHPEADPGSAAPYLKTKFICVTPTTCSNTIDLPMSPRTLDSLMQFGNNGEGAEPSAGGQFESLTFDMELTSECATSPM

activity against STAT3 Glu594Ala mutant compared to wild-type STAT3 (STAT3 Glu594Ala mutant): three-fold lower activity
IC50 (STAT3 Glu594Ala mutant; 2 h incubation, 1 mM DTT, read-out: app. IC50 against STAT3 Glu594Ala mutant): 27 ± 1 µM
SMILES: CC(C)(C)c1ccc2occ(/C=N/NC(=O)c3cccnc3)c(=O)c2c1 [Compound 8]
IFN-γ-stimulated phosphorylation of STAT1 Tyr701 [1]: inhibited to a lesser extent
hydrolysis to the aldehyde (1H-NMR) [2]: no sign of hydrolysis; also recorded: no sign of aldehyde release
tyrosine phosphorylation of STAT5 (STAT5 phosphorylation): not inhibited
IL-6-stimulated STAT3 Tyr705 phosphorylation [3]: inhibited
